# Tested on: Ovariectomized rats
# Assay: Vaginal keratinization test on ovariectomized rats (Example C.2)
# Assay type: in vivo
# Details: estradiol undecylate induced keratinization, per os once daily on days 1-3, active dose = 50% of rats show complete suppression
# Summary of the method: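 Ovariectomized rats given s.c. estradiol undecylate (100 μg per 100 g body weight in sesame oil), then oral compound once daily on days 1-3 (vehicle PEG 200). Vaginas assessed histologically one day after last dose; lowest active dose (mg/kg) is the dose giving complete keratinization suppression in 50% of rats.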
row,SMILES,LAD (lowest active dose) [mg/kg]
1,CCC(CC)C(c1ccc(NC(=O)C(O)c2ccc(OC)c(OC)c2)cc1)n1ccnc1 (stereo not drawn) [Compound 56],>5.00
2,"COc1ccc(CC(=O)Nc2ccc(C(C(C)N3CCN(C)CC3)n3ccnc3)cc2)cc1OC.O (single isomer, unassigned) [Compound 412]",>2.50
3,CCC(CC)C(c1ccc(NC(=O)C(C)(C)O)cc1)n1ccnc1 (racemic) [Compound 24],2.50
4,CCC(CC)C(c1ccc(N(C)C(=O)Cc2ccc(OC)c(OC)c2)cc1)n1ccnc1 (racemic) [Compound 427],2.50
5,CC/C(=C(\C)C(=O)Nc1ccc(C(C(C)C)n2ccnc2)cc1)c1ccccc1 (stereo not drawn) [Compound 203],>10.00
6,CC(C)C(c1ccc(NC(=O)C2COc3ccccc3O2)cc1)n1ccnc1 (stereo not drawn) [Compound 175],10.00
7,CCC(CC)C(c1ccc(NC(=O)Cc2ccc(-c3ccccc3)cc2)cc1)n1ccnc1 (stereo not drawn) [Compound 41],2.50
8,CC(=Cc1cc2ccccc2o1)C(=O)Nc1ccc(C(C(C)C)n2ccnc2)cc1 (stereo not drawn) [Compound 600],>10.00
9,COc1cccc(CC(=O)Nc2ccc(C(C(C)C)n3ccnc3)cc2)c1 (racemic) [Compound 665],2.50
10,CC(=O)Nc1ccc(/C=C(\C)C(=O)Nc2ccc(C(C(C)C)n3ccnc3)cc2)cc1 (stereo not drawn) [Compound 612],10.00
11,CCC(CC)C(c1ccc(NC(=O)Cc2ccc(C)c(C)c2)cc1)n1cncn1 (racemic) [Compound 77],2.50
12,"CC(Sc1ccccc1)C(c1ccc(NC(=O)Cc2ccc(Cl)cc2)cc1)n1ccnc1 (single isomer, unassigned) [Compound 369]",10.00
13,"COc1cc(CC(=O)Nc2ccc(C(C(C)N(C)C)n3cncn3)cc2)cc(OC)c1OC (single isomer, unassigned) [Compound 292]",>2.50
14,"CC(C(c1ccc(NC(=O)Cc2ccc(O)c(Cl)c2)cc1)n1ccnc1)N(C)C (single isomer, unassigned) [Compound 307]",>2.50
15,CCC(CC)C(c1ccc(NC(=O)COc2ccccc2O)cc1)n1ccnc1 (racemic) [Compound 49],2.50
16,"Cc1ccc(CC(=O)Nc2ccc(C(C(C)N(C)C)n3ccnc3)cc2)cc1C (single isomer, unassigned) [Compound 306]",>2.50
17,C/C(=C\c1ccc(C(F)(F)F)cc1)C(=O)Nc1ccc(C(C(C)C)n2cncn2)cc1 (stereo not drawn) [Compound 159],>10.00
18,CCCC(CCC)C(c1ccc(NC(=O)Cc2ccc(OC)c(OC)c2)cc1)n1ccnc1 (racemic) [Compound 378],2.50
19,CCC(CC)C(c1ccc(NC(=O)Cc2cccc(OC)c2)cc1)n1ccnc1 (racemic) [Compound 90],2.50
20,"CCCC(C)C(c1ccc(NC(=O)/C(C)=C/c2ccccc2)cc1)n1ccnc1 (single isomer, unassigned) [Compound 482]",10.00
21,C/C(=C\c1ccccc1)C(=O)Nc1ccc(C(C2COCOC2)n2ccnc2)cc1 (racemic) [Compound 477],>10.00
22,CC(C)C(c1ccc(NC(=O)c2cccs2)cc1)n1ccnc1 (stereo not drawn) [Compound 187],>10.00
23,CCC(CC)C(c1ccc(NC(=O)Cc2ccc(O)cc2)cc1)n1cncn1 (racemic) [Compound 69],2.50
24,CCC(CC)C(c1ccc(NC(=O)Cc2ccc(O)cc2)cc1)n1ccnc1 (racemic) [Compound 111],>2.50
25,CC(CC#N)C(c1ccc(NC(=O)Cc2ccc(Cl)cc2)cc1)n1ccnc1 (mixture of isomers) [Compound 371],10.00
26,CC(C)C(c1ccc(NC(=O)Nc2ccc(Cl)c(Cl)c2)cc1)n1ccnc1 (racemic) [Compound 732],>10.00
27,CC(=Cc1cccc(F)c1)C(=O)Nc1ccc(C(C(C)C)n2ccnc2)cc1 (racemic) [Compound 586],>10.00

# Tested on: metabolism of retinoic acid in human breast cancer cells
# Assay: Inhibition of retinoic acid (RA) metabolism (Example C.1)
# Assay type: cell-based
# Details: MCF-7 human breast cancer cells, 3H-RA as substrate; concentration needed to reduce the amount of metabolites to 50% of the control
# Summary of the method: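 MCF-7 cells, pre-stimulated with RA the day before, incubated with ³H-RA substrate and test compound in 1% DMSO. Polar ³H-metabolites separated from unmetabolized RA and counted by scintillation. IC50 is the concentration cutting metabolite formation to 50% of control, with blank run alongside.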
row,SMILES,IC50 [nM]
1,CCC(CC)C(c1ccc(NC(=O)C(O)c2ccc(OC)c(OC)c2)cc1)n1ccnc1 (stereo not drawn) [Compound 56],0.0251
2,CCC(CC)C(c1ccc(N(C)C(=O)Cc2ccc(OC)c(OC)c2)cc1)n1ccnc1 (racemic) [Compound 427],8.34
3,CC/C(=C(\C)C(=O)Nc1ccc(C(C(C)C)n2ccnc2)cc1)c1ccccc1 (stereo not drawn) [Compound 203],22.8
4,CCC(CC)C(c1ccc(NC(=O)Cc2ccc(C)c(C)c2)cc1)n1cncn1 (racemic) [Compound 77],0.332
5,"CC(Sc1ccccc1)C(c1ccc(NC(=O)Cc2ccc(Cl)cc2)cc1)n1ccnc1 (single isomer, unassigned) [Compound 369]",82.2
6,"COc1cc(CC(=O)Nc2ccc(C(C(C)N(C)C)n3cncn3)cc2)cc(OC)c1OC (single isomer, unassigned) [Compound 292]",0.137
7,CCC(CC)C(c1ccc(NC(=O)COc2ccccc2O)cc1)n1ccnc1 (racemic) [Compound 49],0.433
8,C/C(=C\c1ccc(C(F)(F)F)cc1)C(=O)Nc1ccc(C(C(C)C)n2cncn2)cc1 (stereo not drawn) [Compound 159],> 100
9,CCC(CC)C(c1ccc(NC(=O)Cc2cccc(OC)c2)cc1)n1ccnc1 (racemic) [Compound 90],2.36
10,C/C(=C\c1ccccc1)C(=O)Nc1ccc(C(C2COCOC2)n2ccnc2)cc1 (racemic) [Compound 477],> 1000
11,CCC(CC)C(c1ccc(NC(=O)Cc2ccc(O)cc2)cc1)n1cncn1 (racemic) [Compound 69],0.25
12,CCC(CC)C(c1ccc(NC(=O)Cc2ccc(O)cc2)cc1)n1ccnc1 (racemic) [Compound 111],1.03
13,CC(CC#N)C(c1ccc(NC(=O)Cc2ccc(Cl)cc2)cc1)n1ccnc1 (mixture of isomers) [Compound 371],3.59
14,CC(C)C(c1ccc(NC(=O)Nc2ccc(Cl)c(Cl)c2)cc1)n1ccnc1 (racemic) [Compound 732],19.3

# Continued by falling IC50, values first:
row,IC50 [nM],SMILES
1,36.7,CC(=Cc1cc2ccccc2o1)C(=O)Nc1ccc(C(C(C)C)n2ccnc2)cc1 (stereo not drawn) [Compound 600]
2,18.8,CC(C)C(c1ccc(NC(=O)c2cccs2)cc1)n1ccnc1 (stereo not drawn) [Compound 187]
3,16.8,CC(=O)Nc1ccc(/C=C(\C)C(=O)Nc2ccc(C(C(C)C)n3ccnc3)cc2)cc1 (stereo not drawn) [Compound 612]
4,5.91,COc1cccc(CC(=O)Nc2ccc(C(C(C)C)n3ccnc3)cc2)c1 (racemic) [Compound 665]
5,4.83,CC(C)C(c1ccc(NC(=O)C2COc3ccccc3O2)cc1)n1ccnc1 (stereo not drawn) [Compound 175]
6,3.99,"COc1ccc(CC(=O)Nc2ccc(C(C(C)N3CCN(C)CC3)n3ccnc3)cc2)cc1OC.O (single isomer, unassigned) [Compound 412]"
7,3.74,CC(=Cc1cccc(F)c1)C(=O)Nc1ccc(C(C(C)C)n2ccnc2)cc1 (racemic) [Compound 586]
8,1.98,CCC(CC)C(c1ccc(NC(=O)Cc2ccc(-c3ccccc3)cc2)cc1)n1ccnc1 (stereo not drawn) [Compound 41]
9,1.95,"CCCC(C)C(c1ccc(NC(=O)/C(C)=C/c2ccccc2)cc1)n1ccnc1 (single isomer, unassigned) [Compound 482]"
10,1.74,CCCC(CCC)C(c1ccc(NC(=O)Cc2ccc(OC)c(OC)c2)cc1)n1ccnc1 (racemic) [Compound 378]
11,1.37,CCC(CC)C(c1ccc(NC(=O)C(C)(C)O)cc1)n1ccnc1 (racemic) [Compound 24]
12,1.26,"Cc1ccc(CC(=O)Nc2ccc(C(C(C)N(C)C)n3ccnc3)cc2)cc1C (single isomer, unassigned) [Compound 306]"
13,0.701,"CC(C(c1ccc(NC(=O)Cc2ccc(O)c(Cl)c2)cc1)n1ccnc1)N(C)C (single isomer, unassigned) [Compound 307]"
